The values that follow come from patent US10047083B2, “Dihydropyrimidinoisoquinolinones and pharmaceutical compositions thereof for the treatment of inflammatory disorders” (GALAPAGOS NV, priority 2011, dated 2018).

In one test the target is T1, GPR84 (Homo sapiens, UniProt Q9NQS5).
T1 construct: expressed in transfected cells; membranes used
T1 sequence (Q9NQS5 whole entry): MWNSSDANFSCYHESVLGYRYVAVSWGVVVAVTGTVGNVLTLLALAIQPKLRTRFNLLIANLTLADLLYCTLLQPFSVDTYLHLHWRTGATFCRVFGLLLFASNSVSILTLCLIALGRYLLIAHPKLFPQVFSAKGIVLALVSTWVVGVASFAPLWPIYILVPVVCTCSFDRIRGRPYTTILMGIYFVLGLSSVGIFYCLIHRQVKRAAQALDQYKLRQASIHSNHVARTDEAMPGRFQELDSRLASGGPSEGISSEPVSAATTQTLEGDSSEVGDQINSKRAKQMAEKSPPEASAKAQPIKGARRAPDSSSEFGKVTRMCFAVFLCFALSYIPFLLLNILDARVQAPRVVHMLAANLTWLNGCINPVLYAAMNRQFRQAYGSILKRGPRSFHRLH
Description: GTPγS binding assay (GPR84). The format is biochemical. The following applies: membranes from stable cell line over expressing GPR84; 3,3′ di indolylmethane at EC80. Summed up: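 Membranes (20 μg/well) from a stable GPR84-overexpressing line, pre-incubated with 0.1 μM GDP for 15 min at 4° C, mixed with 0.1 nM [35S]GTPγS and WGA SpA beads in 20 mM HEPES pH 7.4, 5 mM MgCl2, 250 mM NaCl, 0.05% BSA, 75 ug/mL saponin; 90 min at room temperature, then scintillation counting.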
For orientation: Binding of GTPγS marks nucleotide exchange on a G protein.
`CCC(C)(C)CNc1ccc2c(c1)CCn1c-2cc(OC[C@@H]2COCCO2)nc1=O` [Compound 126, 9-(2,2-dimethyl-butylamino)-2-((S)-1-[1,4]dioxan-2-ylmethoxy)-6,7-dihydro-pyrimido[6,1-a]isoquinolin-4-one] registered an IC50 of 0.01 to 100 nM.

`O=c1nc(OC[C@@H]2COCCO2)cc2n1CCc1cc(COCC3CCCC3)ccc1-2` [Compound 147, 9-cyclopentylmethoxymethyl-2-((S)-1-[1,4]dioxan-2-ylmethoxy)-6,7-dihydro-pyrimido[6,1-a]isoquinolin-4-one] had an IC50 of 0.01 to 100 nM.

Compound `O=c1nc(OC[C@@H]2COCCO2)cc2n1CCc1cc(OCC3CCOCC3)ccc1-2` [Compound 159, 2-((S)-1-[1,4]dioxan-2-ylmethoxy)-9-(tetrahydro-pyran-4-ylmethoxy)-6,7-dihydro-pyrimido[6,1-a]isoquinolin-4-one] registered an IC50 of 0.01 to 100 nM.

On to `O=c1nc(OC[C@@H]2COCCO2)cc2n1CCc1cc(COCC3CCOCC3)ccc1-2` [Compound 161, 2-((S)-1-[1,4]dioxan-2-ylmethoxy)-9-(tetrahydro-pyran-4-ylmethoxymethyl)-6,7-dihydro-pyrimido[6,1-a]isoquinolin-4-one], for which the IC50 was in the range of 101 to 500 nM.

Compound `O=c1nc(OC[C@H]2COCCO2)cc2n1CCc1cc(OCCCC3CC3)ccc1-2` [Compound 164, 9-(3-cyclopropyl-propoxy)-2-((R)-1-[1,4]dioxan-2-ylmethoxy)-6,7-dihydropyrimido[6,1-a]isoquinolin-4-one] gave an IC50 of 0.01 to 100 nM.

Compound `O=c1nc(OC[C@H]2COCCO2)cc2n1CCc1cc(OCc3noc(C4CC4)n3)ccc1-2` [Compound 104, 9-(5-cyclopropyl-[1,2,4]oxadiazol-3-ylmethoxy)-2-((R)-1-[1,4]dioxan-2-ylmethoxy)-6,7-dihydro-pyrimido[6,1-a]isoquinolin-4-one] displayed an IC50 of 0.01 to 100 nM.

In turn, `NC(=O)c1cc(F)cc(-c2ccc3c(c2)CCn2c-3cc(OCC3COCCO3)nc2=O)c1` (stereo not shown) [Compound 51, 3-[2-([1,4]dioxan-2-ylmethoxy)-4-oxo-6,7-dihydro-4H-pyrimido[6,1-a]isoquinolin-9-yl]-5-fluoro-benzamide] displayed an IC50 of 101 to 500 nM.

On to `O=c1nc(OCC2COCCO2)cc2n1CCc1cc(C#CCNCc3ccccc3)ccc1-2` (stereo not shown) [Compound 93, 9-(3-benzylamino-prop-1-ynyl)-2-([1,4]dioxan-2-ylmethoxy)-6,7-dihydro-pyrimido[6,1-a]isoquinolin-4-one], for which the IC50 lay within 0.01 to 100 nM.

`O=c1nc(OCC2COCCO2)cc2n1CCc1cc(C#Cc3ccncc3)ccc1-2` (stereo not shown) [Compound 53, 2-([1,4]dioxan-2-ylmethoxy)-9-pyridin-4-ylethynyl-6,7-dihydro-pyrimido[6,1-a]isoquinolin-4-one] returned an IC50 of 101 to 500 nM.

For the compound `Cc1nc(COc2ccc3c(c2)CCn2c-3cc(OCC3COCCO3)nc2=O)no1` (stereo not shown) [Compound 79, 2-([1,4]dioxan-2-ylmethoxy)-9-(5-methyl-[1,2,4]oxadiazol-3-ylmethoxy)-6,7-dihydro-pyrimido[6,1-a]isoquinolin-4-one], the IC50 is 101 to 500 nM.

As to `O=c1nc(OCC2COCCO2)cc2n1CCc1cc(OCc3ncc(-c4ccccc4)o3)ccc1-2` (stereo not shown) [Compound 75, 2-([1,4]dioxan-2-ylmethoxy)-9-(5-phenyl-oxazol-2-ylmethoxy)-6,7-dihydro-pyrimido[6,1-a]isoquinolin-4-one], the IC50 was in the range of 0.01 to 100 nM.

The next test concerns human neutrophils. Description: Human neutrophil migration assay (embelin-induced). As to conditions: neutrophils from human buffy coat, 30 min compound pre-incubation, migration towards embelin at EC80 for 1 h, ATPlite readout, read-out: human neutrophil migration inhibition (Neutrophils). The test is classed as cell-based. The protocol: 2. Cellular Assays 2.1. Human Neutrophil Migration Assay
The effect of agonists or antagonists for GPR84 can therefore be assayed in a neutrophil migration test. In the neutrophil migration assay, neutrophils, freshly isolated from buffy coats from human volunteers, are treated with a compound for 30 minutes. Subsequently, the neutrophils are transferred to the upper wells of a Corning HTS transwell 96 permeable support system, of which the lower wells are filled with a embelin solution at EC80 (concentration which gives 80% of the activity of GPR84). After 1 h of incubation, migration of the neutrophils towards embelin in the lower compartment can be quantified by measuring the ATP-content of the lower wells using the ATPlite luminescence ATP detection assay system (Perkin Elmer, Cat. No.: 436110).
A human buffy coat is diluted with an equal volume of ice cold DPBS. 20 mL of the diluted buffy coat is gently mixed with 4 mL of ACD buffer (140 mM citric acid, 200 mM sodium citrate and 220 mM dextrose). Then, 12 mL of the 6% dextran/0.9% NaCl solution (15 g dextran T2000 and 2.25 g NaCl dissolved in 250 mL H2O) is added to the mixture and the samples are inverted gently up to 20 times. The total volume was transferred to a new recipient and incubated at room temperature for 1 h for complete separation of the two phases to occur. The yellowish supernatant is then transferred to a clean centrifugation tube and centrifuged for 12 minutes at 1300 rpm and 4° C. After centrifugation, the supernatant is discarded and the remaining cell pellet is rapidly resuspended in 12 mL of ice-cold H2O for red blood cell lysis to occur. After 20 seconds, 4 mL of ice-cold 0.6 M KCl is added. Samples are mixed carefully and centrifuged for 6 minutes at 1300 rpm, 4° C. The supernatant is discarded and the red blood cell lysis procedure is repeated one more time. Subsequently, the cell pellet is resuspended in 4 mL of DPBS and layered over 5 mL of Lymphoprep (Nycomed Pharma, Cat. No.: 1114545) in a 15 mL centrifuge tube. After centrifugation for 12 min at 1300 rpm, 4° C., the supernatant is removed and the cell pellet, containing the neutrophils, is resuspended in 25 mL chemotaxis buffer (RPMI 1640 medium, supplemented with 10 mM HEPES; freshly made for each experiment)
A cell suspension of 8.9×10^6 cells per milliliter is prepared. 20 μL of compound solution in chemotaxis buffer is added to 180 μL cell suspension. The mixture is incubated at 37° C. for 30 minutes with intermediate resuspension of the cells after 15 minutes. Following this, 70 μL cell suspension is transferred to the upper compartment of a Corning HTS transwell 96 permeable support system with 5.0 μm pore size polycarbonate membrane (Corning, Cat. No.: 3387). The receiver well of the transwell system is then filled with 200 μL chemotaxis buffer containing compound and chemotactic agent (embelin). After incubation at 37° C. in 5% CO2 for 1 h, the upper plate of the transwell system is removed and the cell suspension in the receiver plate is transferred to a 96-well V-bottom plate. 50 μL of DPBS is added to the receiver plate to prevent remaining cells from drying out. The V-bottom plate is centrifuged for 6 minutes at 1500 rpm. The supernatant is removed and the cells are resuspended in 50 μL DPBS. The cells are then transferred back to the receiver plate of the transwell system. After this, 100 μL ATPlite solution (Perkin Elmer, Cat. No: 436110) was added to the cells. The plate is incubated for 10 minutes in the dark, while shaking. […] of cell lysate is then transferred to a white 96-well plate and luminescence is measured. The detected luminescent signal is considered as linearely related to the number of cells having migrated from the upper well to the receiver well.
(In ATP-based viability assays light output follows the ATP content of the culture.)
On to `CCC(C)(C)CNc1ccc2c(c1)CCn1c-2cc(OC[C@@H]2COCCO2)nc1=O` [Compound 126, 9-(2,2-dimethyl-butylamino)-2-((S)-1-[1,4]dioxan-2-ylmethoxy)-6,7-dihydro-pyrimido[6,1-a]isoquinolin-4-one], for which the IC50 is 0.01 to 100 nM.

Take `O=c1nc(OC[C@@H]2COCCO2)cc2n1CCc1cc(C#CC3CC3)ccc1-2` [Compound 122, 9-cyclopropylethynyl-2-((S)-1-[1,4]dioxan-2-ylmethoxy)-6,7-dihydro-pyrimido[6,1-a]isoquinolin-4-one]: the IC50 lay in the range of 0.01 to 100 nM.

Turning to `CC(O)(C#Cc1ccc2c(c1)CCn1c-2cc(OCC2COCCO2)nc1=O)c1ccccc1` (stereo not shown) [Compound 92, 2-([1,4]dioxan-2-ylmethoxy)-9-(3-hydroxy-3-phenyl-but-1-ynyl)-6,7-dihydro-pyrimido[6,1-a]isoquinolin-4-one], the IC50 is 0.01 to 100 nM.

As for `CCCC#Cc1ccc2c(c1)CCn1c-2cc(OCC2COCCO2)nc1=O` (stereo not shown) [Compound 19, 2-([1,4]dioxan-2-ylmethoxy)-9-pent-1-ynyl-6,7-dihydro-pyrimido[6,1-a]isoquinolin-4-one], the IC50 was in the range of 0.01 to 100 nM.

For the compound `O=c1nc(OC[C@@H]2COCCO2)cc2n1CCc1cc(COCC3CCCC3)ccc1-2` [Compound 147, 9-cyclopentylmethoxymethyl-2-((S)-1-[1,4]dioxan-2-ylmethoxy)-6,7-dihydro-pyrimido[6,1-a]isoquinolin-4-one], the IC50 was in the range of 0.01 to 100 nM.

Take `O=c1nc(OC[C@@H]2COCCO2)cc2n1CCc1cc(OCC3CCOCC3)ccc1-2` [Compound 159, 2-((S)-1-[1,4]dioxan-2-ylmethoxy)-9-(tetrahydro-pyran-4-ylmethoxy)-6,7-dihydro-pyrimido[6,1-a]isoquinolin-4-one]: the IC50 is 0.01 to 100 nM.

In the case of `O=c1nc(OC[C@@H]2COCCO2)cc2n1CCc1cc(COCC3CCOCC3)ccc1-2` [Compound 161, 2-((S)-1-[1,4]dioxan-2-ylmethoxy)-9-(tetrahydro-pyran-4-ylmethoxymethyl)-6,7-dihydro-pyrimido[6,1-a]isoquinolin-4-one], the IC50 lay in the range of 0.01 to 100 nM.

As for `O=c1nc(OC[C@H]2COCCO2)cc2n1CCc1cc(C#CC3CC3)ccc1-2` [Compound 111, 9-cyclopropylethynyl-2-((R)-1-[1,4]dioxan-2-ylmethoxy)-6,7-dihydro-pyrimido[6,1-a]isoquinolin-4-one], the IC50 lay within 0.01 to 100 nM.

On to `O=c1nc(OCC2COCCO2)cc2n1CCc1cc(-c3ccc4[nH]ccc4c3)ccc1-2` (stereo not shown) [Compound 22, 2-([1,4]dioxan-2-ylmethoxy)-9-(1H-indol-5-yl)-6,7-dihydro-pyrimido[6,1-a]isoquinolin-4-one], for which the IC50 was 0.01 to 100 nM.

Regarding `N#Cc1ccccc1-c1ccc2c(c1)CCn1c-2cc(OCC2COCCO2)nc1=O` (stereo not shown) [Compound 4, 2-[2-([1,4]dioxan-2-ylmethoxy)-4-oxo-6,7-dihydro-4H-pyrimido[6,1-a]isoquinolin-9-yl]-benzonitrile], the IC50 was in the range of 101 to 500 nM.

Take `CC(C)(C)c1nc(COc2ccc3c(c2)CCn2c-3cc(OCC3COCCO3)nc2=O)no1` (stereo not shown) [Compound 17, 9-(5-tert-butyl-[1,2,4]oxadiazol-3-ylmethoxy)-2-([1,4]dioxan-2-ylmethoxy)-6,7-dihydro-pyrimido[6,1-a]isoquinolin-4-one]: the IC50 was 0.01 to 100 nM.

`Cc1ccc(-c2ccc3c(c2)CCn2c-3cc(OCC3COCCO3)nc2=O)cn1` (stereo not shown) [Compound 35, 2-([1,4]dioxan-2-ylmethoxy)-9-(6-methyl-pyridin-3-yl)-6,7-dihydro-pyrimido[6,1-a]isoquinolin-4-one]: the IC50 fell in the range of 101 to 500 nM.

Regarding `CN(CC#Cc1ccc2c(c1)CCn1c-2cc(OCC2COCCO2)nc1=O)Cc1ccccc1` (stereo not shown) [Compound 85, 9-[3-(benzyl-methyl-amino)-prop-1-ynyl]-2-([1,4]dioxan-2-ylmethoxy)-6,7-dihydro-pyrimido[6,1-a]isoquinolin-4-one], the IC50 was in the range of 0.01 to 100 nM.

In the case of `Cn1ccc2cc(-c3ccc4c(c3)CCn3c-4cc(OCC4COCCO4)nc3=O)ccc21` (stereo not shown) [Compound 34, 2-([1,4]dioxan-2-ylmethoxy)-9-(1-methyl-1H-indol-5-yl)-6,7-dihydro-pyrimido[6,1-a]isoquinolin-4-one], the IC50 is 0.01 to 100 nM.

For `COc1ccccc1-c1ccc2c(c1)CCn1c-2cc(OCC2COCCO2)nc1=O` (stereo not shown) [Compound 23, 2-([1,4]dioxan-2-ylmethoxy)-9-(2-methoxy-phenyl)-6,7-dihydro-pyrimido[6,1-a]isoquinolin-4-one], the IC50 lay in the range of 101 to 500 nM.

`O=c1nc(OCC2COCCO2)cc2n1CCc1cc(CCc3ccccn3)ccc1-2` (stereo not shown) [Compound 20, 2-([1,4]dioxan-2-ylmethoxy)-9-(2-pyridin-2-yl-ethyl)-6,7-dihydro-pyrimido[6,1-a]isoquinolin-4-one]: the IC50 was 0.01 to 100 nM.

With `O=c1nc(OCC2COCCO2)cc2n1CCc1cc(C#CC3CC3)ccc1-2` (stereo not shown) [Compound 30, 9-cyclopropylethynyl-2-([1,4]dioxan-2-ylmethoxy)-6,7-dihydro-pyrimido[6,1-a]isoquinolin-4-one], the IC50 lay within 0.01 to 100 nM.
